From patent US20120252730A1, “PLATELET AGGREGATION INHIBITORS” (UNIVERSITY OF CHICAGO, priority 2009, published 2012)
Ends that are not written are not given here. maleimide monolayer = not defined here

B1: KQAGC (SEQ ID NO: 20), immobilized on a self-assembled monolayer (peptide)
peptide: KQAGC-NH2
modifications: not fully specified (residue 5); also: C-terminal Cys thiol linked to maleimide of monolayer
notes: also called 0.5% KQAGC SAM
B2: KQAGDC (SEQ ID NO: 19), immobilized on a self-assembled monolayer (peptide)
peptide: KQAGDC-NH2
modifications: not fully specified (residue 6); also: C-terminal Cys thiol linked to maleimide of monolayer
notes: also called 0.5% KQAGDC SAM
B3: QAGDVC (SEQ ID NO: 16), immobilized on a self-assembled monolayer (peptide)
peptide: QAGDVC-NH2
modifications: not fully specified (residue 6); also: C-terminal Cys thiol linked to maleimide of monolayer
notes: also called 0.5% QAGDVC SAM
B4: GHHLGGADQAGKVC (SEQ ID NO: 71), scrambled peptide immobilized on a self-assembled monolayer (peptide)
peptide: GHHLGGADQAGKVC-NH2
modifications: not fully specified (residue 14); also: C-terminal Cys thiol linked to maleimide of monolayer
notes: Control

Each molecule was assayed on αIIbβ3 CHO K1 cells (assay: Cell adhesion assay: αIIbβ3 CHO K1 cells on SAMs presenting immobilized peptides). Details: 0.5% peptide SAM; in presence of 300 μM cRGDFG.
Type: cell-based, human
Protocol: Monolayers were prepared as described (Houseman, et al., 2003). Glass coverslips were sonicated for 30 minutes in deionized ultrafiltered (DIUF) water and then 30 minutes in ethanol and then dried under a stream of nitrogen. Titanium (4 nm) and then gold (29 nm) were evaporated onto the coverslips using an electron beam evaporator (Boc Edwards) at a rate of 0.05-0.10 nm/s and at a pressure of 1 μTorr. The gold-coated coverslips were immersed in an ethanolic solution of maleimide-terminated disulfide (1%) and tri(ethylene glycol)-terminated disulfide (99%) overnight at room temperature. The total disulfide concentration was 1 mM. The substrates were washed with DIUF water, ethanol and then dried under a stream of nitrogen.
The pcDNA3.1 vectors that express human αIIb or β3, respectively, have been described previously (see e.g., Litvinov et al. (2006) Biochemistry, 45: 4957-4964). CHO K1, BHK 21 and HT1080 cells were purchased from ATCC. All CHO cells were cultured at 37° C. and 5% CO2 using F12K medium supplemented with 10% FBS and pen/strep. […] CHO K1 cells were transfected with αIIb and β3 cDNA with FuGENE following the supplier's protocol. Transfected cells were selected with 1 mg/mL zeocin and 1 mg/mL geneticin.
Cysteine-terminated peptides were immobilized onto maleimide-presenting SAMs by adding 40 μL of 1 mM peptide solution to the biochip and incubating at 37° C. for 1 hour. Substrates were rinsed with DIUF water and ethanol and dried under a stream of nitrogen. αIIbβ3 CHO K1 cells were detached from culture plates with 1 mM EGTA/2 mM EDTA in PBS (phosphate-buffered saline), rinsed with serum-free F-12K medium, centrifuged and resuspended in serum-free F-12K medium supplemented with cRGDFG (SEQ ID NO: 12) (300 μM) and 1× penicillin/streptomycin. After 15-minute of incubation, cells (200,000/mL) were added to substrates in 24-well culture plates. After 2 hour incubation at 37° C. and 5% CO2, media was exchanged for F-12K medium supplemented with 10% FBS, 1× penicillin/streptomycin and cRGDFG (SEQ ID NO: 12) (300 μM). After 2 hours, the substrates were washed gently with warm PBS, and adherent cells were immediately fixed with 4% formaldehyde for 30 minutes, visualized with a 20× objective of a Zeiss Axiovert 200 inverted microscope, and photographed. For cell adhesion assays mediated by Ac-GXGDSC (SEQ ID NO: 26), αIIbβ3 CHO K1 cells were incubated on a 5×4 circle (1 mm diameter) array for 1 hour with serum-free F-12K medium supplemented with cRGDFG (SEQ ID NO: 12) (300 μM) and 1× penicillin/streptomycin, followed by media exchange to F-12K medium supplemented with 10% FBS, 1× penicillin/streptomycin and cRGDFG (SEQ ID NO: 12) (300 μM. The substrates were washed with warm PBS, and adherent cells were immediately fixed and permeabilized with 4% formaldehyde and 0.5% Triton-X for 30 minutes. Fixed cells were stained with DAPI, visualized and photographed with a 20× objective as described. The number of adherent cells per field of view was counted using Image J software. Cells were counted in at least three fields for each circle, and each experiment was repeated 3 times. The degree of adhesion is reported as a percentage of cells that adhere relative to control experiments with the peptide Ac-GRGDSC (SEQ ID NO: 28).
Monolayers were prepared that presented a mixture of maleimide groups and tri(ethylene glycol) groups with the former present at a density of 0.5% (relative to total alkanethiolate). The monolayers were treated with cysteine-terminated peptides to immobilize the ligands (FIG. 1A). In each case mass spectrometry was used to verify immobilization of the peptides in high yield (Su et al., 2002).
The adhesion and spreading of αIIbβ3 CHO K1 cells to monolayers presenting GRGDSC (SEQ ID NO: 11), HHLGGAKQAGDVC (SEQ ID NO: 21) and a mixture of both peptides was compared. […]
With “GGAKQAC (completely synthesized peptide)” the “adhesion of αIIbβ3 CHO K1 cells to monolayer presenting the peptide” value (“adhesion of αIIbβ3 CHO K1 cells” for short) was “failed to adhere”.
In the case of KQAGC (completely synthesized peptide), the “adhesion of αIIbβ3 CHO K1 cells” value is reported as “failed to adhere”.
For GDVC (completely synthesized peptide), the “adhesion of αIIbβ3 CHO K1 cells” value was “failed to adhere”.
“KQAGDVC (completely synthesized peptide)” was tested, and the “adhesion of αIIbβ3 CHO K1 cells” value was “adhered and spread”.
For AGDVC (completely synthesized peptide), the “adhesion of αIIbβ3 CHO K1 cells” value was “adhered”.
In the case of KQAGDC (completely synthesized peptide), the “adhesion of αIIbβ3 CHO K1 cells” value is reported as “adhered”.
In the case of “HHLGGAC (completely synthesized peptide)”, the “adhesion of αIIbβ3 CHO K1 cells” value is reported as “failed to adhere”.
In the case of GHHLGGADQAGKVC (scrambled peptide), the “adhesion of αIIbβ3 CHO K1 cells” value is reported as “lack of cell attachment”.
For QAGDVC (completely synthesized peptide), the “adhesion of αIIbβ3 CHO K1 cells” value was “adhered”.

Each molecule was assayed on αIIbβ3 CHO K1 cells (assay: Cell adhesion inhibition assay with soluble peptides). Details: monolayer presenting GRGDS.
Type: cell-based, human
Protocol: Suspensions of αIIbβ3 CHO K1 cells (100,000/mL) were incubated with cRGDFG (SEQ ID NO: 12) (300 μM) in serum-free F-12K medium with 1 mg/mL BSA (bovine serum albumin) and 1× penicillin/streptomycin for 15 minutes at 37° C. and 5% CO2. These suspensions were then supplemented with soluble peptides at concentrations ranging from 1 pM to 100 μM and further incubated for 15 minutes at 37° C. and 5% CO2. Cells were then added to monolayers and incubated at 37° C. and 5% CO2 for 2 hours, then media was exchanged for F-12K medium supplemented with 10% FBS and 1× penicillin/streptomycin. The substrates were further incubated for 2 hours. The substrates were washed gently with warm PBS, and adherent cells were immediately fixed and permeabilized with 4% formaldehyde and 0.5% Triton-X for 30 minutes. Fixed cells were stained with DAPI, visualized and photographed with a 20× as described previously. The number of adherent cells per field of view was counted using Image J. Cells were counted in at least five fields for each substrate, and each experiment was repeated 3 times. The degree of inhibition is reported as a percentage of cells that adhere relative to control experiments in the absence of soluble peptide.
To verify that the two peptides interact with the same site on αIIbβ3, it was determined whether the peptides GRGDS (SEQ ID NO: 4), HHLGGAKQAGDV (SEQ ID NO: 1) and AGDV (SEQ ID NO: 22), in soluble form, could block the attachment of cells to the monolayers presenting these ligands. In these experiments identical suspensions of cells (100,000/mL) were first incubated in serum-free F-12K medium supplemented with cRGDFG (SEQ ID NO: 12) (300 μM) and with the soluble peptides in concentrations ranging from 1 pM to 100 μM and then applied the mixtures to monolayers presenting either the GRGDSC (SEQ ID NO: 11), HHLGGAKQAGDVC (SEQ ID NO: 21), or AGDVC (SEQ ID NO: 17) peptide (SEQ ID NO: 17) (FIG. 5). Cells were allowed to attach for 2 hours, after which media was exchanged to 10% FBS F-12K medium (supplemented with cRGDFG (SEQ ID NO: 12)) and cultured for an additional 2 hours. The slides were then rinsed and nuclei were stained with DAPI to facilitate counting of the adherent cells. […] This experiment again verifies that the cell attachment is mediated by the immobilized peptide alone and not non-specific interactions between other cell-surface molecules and the monolayer.
For “HHLGGAKQAGDV (not fully specified (C-terminus))”, the “block of cell attachment by soluble peptide” value (from here on “block of cell attachment”) was “blocked cell attachment”.

Same assay, conditions: monolayers presenting GRGDSC, HHLGGAKQAGDVC or AGDVC; soluble peptide 1 pM to 100 μM; 300 μM cRGDFG
In the case of GADGV (scrambled peptide), the “block of cell attachment” value is reported as “had no effect on cell adhesion”.
With GHHLGGADQAGKV (scrambled peptide) the “block of cell attachment” value was “had no effect on cell adhesion”.
With “HHLGGAKQAGDV (not fully specified (C-terminus))” the “block of cell attachment” value was “could block cell attachment to monolayers presenting any of the three peptides”.

These molecules were tested against T1, human αIIbβ3 integrin on transfected CHO K1 cells (human, UniProt P08514 32-1039; P05106 27-788) (assay: adhesion of αIIbβ3 CHO K1 cells to the peptide monolayer, 300 µM cRGDFG present). Details: not given.
T1 construct: whole, on cells; CHO K1 cells transfected with human αIIb and β3 cDNA; about 30% of the cells expressed the receptor; also called platelet receptor; platelet integrin
Protocol: For cell adhesion assays mediated by Ac-GXGDSC (SEQ ID NO: 26), αIIbβ3 CHO K1 cells were incubated on a 5×4 circle (1 mm diameter) array for 1 hour with serum-free F-12K medium supplemented with cRGDFG (SEQ ID NO: 12) (300 μM) and 1× penicillin/streptomycin, followed by media exchange to F-12K medium supplemented with 10% FBS, 1× penicillin/streptomycin and cRGDFG (SEQ ID NO: 12) (300 μM. The substrates were washed with warm PBS, and adherent cells were immediately fixed and permeabilized with 4% formaldehyde and 0.5% Triton-X for 30 minutes. Fixed cells were stained with DAPI, visualized and photographed with a 20× objective as described. The number of adherent cells per field of view was counted using Image J software. Cells were counted in at least three fields for each circle, and each experiment was repeated 3 times. The degree of adhesion is reported as a percentage of cells that adhere relative to control experiments with the peptide Ac-GRGDSC (SEQ ID NO: 28).
CHO K1 cells were used that were transfected with the αIIbβ3 receptor, as described previously (Salsmann et al., 2005). Cells were transfected with pcDNA3.1 vectors that coded for αIIb and β3 using FuGENE6 and analyzed by FACS after labeling with the PAC-1 (anti-αIIbβ3) and H-96 (anti-β3) antibodies. Approximately 30% of the cells expressed the receptor (FIG. 2A). Because the CHO K1 cells also express αv and α5 integrins on their surfaces, adhesion experiments were performed in the presence of the cyclic peptide cRGDFG (SEQ ID NO: 12), where F is a D amino acid. […] Treatment of transfected cells with both the cyclic peptide inhibitor and the PAC-1 antibody, however, prevented cell adhesion to the monolayer (FIG. 2F).
B1: no binding.
HHLGGAC(maleimide monolayer)-NH2 (reading uncertain, also called 0.5% HHLGGAC SAM) [HHLGGAC (SEQ ID NO: 13), immobilized on a self-assembled monolayer]: no binding.
KQAGDVC(maleimide monolayer)-NH2 (reading uncertain, also called 0.5% KQAGDVC SAM) [KQAGDVC (SEQ ID NO: 14), immobilized on a self-assembled monolayer]: binds.
GDVC(maleimide monolayer)-NH2 (reading uncertain, also called 0.5% GDVC SAM) [GDVC (SEQ ID NO: 18), immobilized on a self-assembled monolayer]: no binding.
GGRDGSC(maleimide monolayer)-NH2 (reading uncertain, Control; also called 0.5% GGRDGSC) [GGRDGSC (SEQ ID NO: 70), scrambled peptide immobilized on a self-assembled monolayer]: no binding.
GGAKQAC(maleimide monolayer)-NH2 (reading uncertain, also called 0.5% GGAKQAC SAM) [GGAKQAC (SEQ ID NO: 15), immobilized on a self-assembled monolayer]: no binding.
AGDVC(maleimide monolayer)-NH2 (not fully specified; reading uncertain, also called 0.5% AGDVC SAM) [AGDVC (SEQ ID NO: 17), immobilized on a self-assembled monolayer]: binds.
B2: binds.
B3: binds.
B4: no binding.
